Test results reported in patent US7094801B2, “Chalcone derivatives and their use to treat diseases” (Atherogenics, Inc., priority 2001, dated 2006).
pIC50: −log10 of the molar value. Where a name gives a salt, the structure may show the parent alone.

Key:
VCAM-1 = experiment: In Vitro VCAM-1 Assay (TNF-α stimulated HAEC or HPAEC, cell ELISA); type: cell-based, human; details: TNF-α (1 ng/ml) stimulated HAEC or HPAEC, approximately 16 hours
Description: Cell Culture and compound dosing: Cultured primary human aortic (HAEC) or pulmonary (HPAEC) endothelial cells were obtained from Clonetics, Inc., and were used below passage 9. Cells were seeded in 96 well plates such that they would reach 90–95% confluency by the following day. On the following day the cells were stimulated with TNF-α (1 ng/ml) in the presence or absence of compounds dissolved in DMSO such that the final concentration of DMSO is 0.25% or less. To establish a dose curve for each compound, four concentrations in 2- to 5-fold increments were used. Cells were exposed to TNF-α and compounds for approximately 16 hours. The next day the cells were examined under microscope to score for visual signs of toxicity or cell stress.
Following 16 hr exposure to TNF-α and compound the media was discarded and the cells were washed once with Hanks Balanced Salt Solution (HBSS)/Phosphate buffered saline (PBS) (1:1). Primary antibodies against VCAM-1 (0.25 μg/ml in HBSS/PBS+5% FBS) were added and incubated for 30–60 minutes at 37° C. Cells were washed with HBSS/PBS three times, and secondary antibody Horse Radish Peroxidase (HRP)-conjugated goat anti-mouse IgG (1:500 in HBSS/PBS+5% FBS) were added and incubated for 30 minutes at 37° C. Cells were washed with HBSS/PBS four time and TMB substrate were added and incubated at room temperature in the dark until there was adequate development of blue color. The length of time of incubation was typically 5–15 minutes. 2N sulfuric acid was added to stop the color development and the data was collected by reading the absorbance on a BioRad ELISA plate reader at OD 450 nm. The results are expressed as IC50 values (the concentration (micromolar) of compound required to inhibit 50% of the maximal response of the control sample stimulated by TNF-α only).

melting point	pIC50 (VCAM-1; Homo sapiens, 16 h)	pIC50 (VCAM-1; sodium salt)	Compound
83 to 86 °C	> 5.30		CCOC(=O)CNC(=O)N(C(=O)NCC(=O)OCC)c1ccc(C(=O)/C=C/c2cc(OC)c(OC)c(-c3cccs3)c2)cc1 [Example 16, (3-[Ethoxycarbonylmethylaminocarbonyl]-3-{4-[3E-(3,4-dimethoxy-5-thiophen-2-yl-phenyl)-acryloyl]-phenyl}-ureido)-acetic acid ethyl ester]
215 to 217 °C	> 5.30		COc1cc(OC)c(-c2cc3ccccc3s2)cc1/C=C/C(=O)c1ccc(C(=O)NCC(F)(F)F)cc1 [Example 91, 4-[3E-(5-Benzo[b]thiophen-2-yl-2,4-dimethoxy-phenyl)-acryloyl]-N-(2,2,2-trifluoro-ethyl)-benzamide]
179 to 182 °C	> 5.30		COc1cc(OC)c(-c2cccs2)cc1/C=C/C(=O)c1cccc(C(=O)O)c1 [Example 43, 3-[3E-(2,4-Dimethoxy-5-thiophen-2-yl-phenyl)-acryloyl]-benzoic acid]
> 260 °C	> 5.30		COc1cc(OC)c(-c2nccs2)cc1/C=C/C(=O)c1ccc(C(=O)O)cc1 [Example 55, 4-[3E-(2,4-Dimethoxy-5-thiazol-2-yl-phenyl)-acryloyl]-benzoic acid]
> 240 °C (dec.)	> 6.00		COc1cc(OC)c(-c2cc3ccccc3s2)cc1/C=C/C(=O)c1ccc(S(=O)(=O)NC(=O)C(C)C)cc1 [Example 87, 4-[3E-(5-Benzo[b]thiophen-2-yl-2,4-dimethoxy-phenyl)-acryloyl]-N-isobutyryl-benzenesulfonamide]
184.5 to 186 °C	> 5.30		COc1cc(/C=C/C(=O)c2ccc3[nH]ccc3c2)cc(-c2cccs2)c1OC [Example 27, 3E-(3,4-Dimethoxy-5-thiophen-2-yl-phenyl)-1-(1H-indol-5-yl)-propenone]
214 to 217 °C (dec.)		> 5.30	COc1cc(OC)c(-c2cc3ccccc3s2)cc1/C=C/C(=O)c1ccccc1C(=O)[O-].[Na+] [Example 9, 2-[3E-(5-Benzo[b]thiophen-2-yl-2,4-dimethoxy-phenyl)-acryloyl]-benzoic acid, sodium salt]
> 240 °C (dec.)	> 5.30		COc1cc(OC)c(-c2nc3ccccc3[nH]2)cc1/C=C/C(=O)c1ccc(C(=O)O)cc1.Cl [Example 70, 4-{3E-[5-(1H-Benzoimidazol-2-yl)-2,4-dimethoxy-phenyl]-acryloyl}-benzoic acid]
240 to 241 °C	> 6.00		COc1cc(OC)c(-c2cc3ccccc3s2)cc1/C=C/C(=O)c1ccc(C(N)=O)cc1 [Example 93, 4-[3E-(5-Benzo[b]thiophen-2-yl-2,4-dimethoxy-phenyl)-acryloyl]-benzamide]
	> 6.00		COc1cc(OC)c(-c2cc3ccccc3s2)cc1/C=C/C(=O)c1ccc(C(=O)O)cc1 [Example 120, 4-[3E-(5-Benzo[b]thien-2-yl-2,4-dimethoxyphenyl)-acryloyl]-benzoic acid, N-methyl-D-glucamine salt]
213 to 215 °C	> 6.00		COc1cc(OC)c(-c2ccc(C)s2)cc1/C=C/C(=O)c1ccc(C(=O)O)cc1 [Example 40, 4-{3E-[2,4-Dimethoxy-5-(5-methyl-thiophen-2-yl)-phenyl]-acryloyl}-benzoic acid]
	> 5.30		COc1cc(OC)c(-c2cccs2)cc1/C=C/C(=O)c1ccc(C(C)(C)C(=O)O)cc1 [Example 77, 2-{4-[3E-(2,4-Dimethoxy-5-thiophen-2-yl-phenyl)-acryloyl]-phenyl}-2-methyl-propionic acid]
	< 5.00		CCOC(=O)C1(C(=O)OCC)Oc2ccc(C(=O)/C=C/c3cc(OC)c(OC)c(-c4cccs4)c3)cc2O1 [Example 103, 5-[3E-(3,4-Dimethoxy-5-thiophen-2-yl-phenyl)-acryloyl]-benzo[1,3]dioxole-2,2-dicarboxylic acid, diethyl ester]
	< 5.00		COc1cc(OC)c(-c2cc3ccccc3s2)cc1/C=C/C(=O)c1ccc(NC2OC(CO)C(O)C(O)C2O)cc1 [Example 99, 3E-(5-Benzo[b]thiophen-2-yl-2,4-dimethoxy-phenyl)-1-[4-(D-glucopyranosylamino)-phenyl]-propenone]
	< 5.00		COc1cc(OC)c(-c2ccc(C(=O)O)s2)cc1/C=C/C(=O)c1ccc(C(=O)O)cc1 [Example 52, 5-{5-[3-(4-Carboxy-phenyl)-3-oxo-E-propenyl]-2,4-dimethoxy-phenyl}-thiophene-2-carboxylic acid]
	> 5.00		O=C(O)c1ccc(C(=O)/C=C/c2cc(-c3cccs3)ccc2N2CCCC2)cc1 [Example 63, 4-[3E-(2-Pyrrolidin-1-yl-5-thiophen-2-yl-phenyl)-acryloyl]-benzoic acid]
	> 6.00		COc1cc(OC)c(-c2cc3ccccc3s2)cc1/C=C/C(=O)c1ccc(C(=O)NCCN2CCOCC2)cc1 [Example 90, 4-[3E-(5-Benzo[b]thiophen-2-yl-2,4-dimethoxy-phenyl)-acryloyl]-N-(2-morpholin-4-yl-ethyl)-benzamide]
	> 5.30		COc1cc(OC)c(-c2cc3ccccc3s2)cc1/C=C/C(=O)c1ccc(S(N)(=O)=O)cc1 [Example 80, 4-[3E-(5-Benzo[b]thiophen-2-yl-2,4-dimethoxy-phenyl)-acryloyl]-benzenesulfonamide]
	< 5.00		O=C(/C=C/c1ccc(-c2cccs2)cc1)c1ccc(SC(F)(F)C(=O)O)cc1 [Example 25, Difluoro-{4-[3E-(4-thiophen-2-yl-phenyl)-acryloyl]-phenylthio}-acetic acid, sodium salt]
	> 5.30		COc1cc(/C=C/C(=O)c2ccc3c(ccn3C)c2)cc(-c2cccs2)c1OC [Example 28, 3E-(3,4-Dimethoxy-5-thiophen-2-yl-phenyl)-1-(1-methyl-1H-indol-5-yl)-propenone]
	> 5.30		COC(=O)c1ccc(-c2cc(/C=C/C(=O)c3ccc(C(=O)O)cc3)c(OC)cc2OC)s1 [Example 51, 5-{5-[3-(4-Carboxy-phenyl)-3-oxo-E-propenyl]-2,4-dimethoxy-phenyl}-thiophene-2-carboxylic acid methyl ester]
	> 6.00		COc1cc(OC)c(-c2cc3ccccc3s2)cc1/C=C\C(=O)c1ccc(C(=O)O)cc1 [Example 79, 4-[3Z-(5-Benzo[b]thien-2-yl-2,4-dimethoxyphenyl)-acryloyl]-benzoic acid]
> 260 °C			COc1cc(OC)c(-c2nc3cccnc3[nH]2)cc1/C=C/C(=O)c1ccc(S(N)(=O)=O)cc1 [Example 112, 4-{3E-[5-(3H-Imidazo[4,5-b]pyridin-2-yl)-2,4-dimethoxy-phenyl]-acryloyl}-benzenesulfonamide]
235 °C (dec.)			COc1cc(OCC(N)=O)c(/C=C/C(=O)c2ccc(C(=O)O)cc2)cc1-c1cccs1 [Example 71, 4-[3E-(2-Carbamoylmethoxy-4-methoxy-5-thiophen-2-yl-phenyl)-acryloyl]-benzoic acid]
	> 5.30		COc1cc(/C=C/C(=O)c2ccc(N(C)S(C)(=O)=O)cc2)cc(-c2cccs2)c1OC [Example 98, N-{4-[3E-(3,4-Dimethoxy-5-thiophen-2-yl-phenyl)-acryloyl]-phenyl}-N-methyl-methanesulfonamide]
157 to 160 °C			COc1cc(OC)c(-c2cc3ccccc3n2C)cc1/C=C/C(=O)c1ccc(C(=O)O)cc1 [Example 116, 4-{3E-[2,4-Dimethoxy-5-(1-methyl-1H-indol-2-yl)-phenyl]-acryloyl}-benzoic acid]
163 to 164 °C (dec.)			COc1cc(OCc2nnn[nH]2)c(/C=C/C(=O)c2ccc(S(N)(=O)=O)cc2)cc1-c1cccs1 [Example 89, 4-{3E-[4-Methoxy-2-(1H-tetrazol-5-ylmethoxy)-5-thiophen-2-yl-phenyl]-acryloyl}-benzenesulfonamide]
194 to 195 °C			COc1cc(OC)c(C2C=CCO2)cc1/C=C/C(=O)c1ccc(S(N)(=O)=O)cc1 (stereo not drawn) [Example 121, 4-{3E-[5-(2,5-Dihydro-furan-2-yl)-2,4-dimethoxy-phenyl]-acryloyl}-benzenesulfonamide]
	> 6.00		COc1cc(OC)c(-c2cc3ccccc3s2)cc1/C=C/C(=O)c1ccc(SCC(=O)O)cc1 [Example 23, {4-[3E-(5-Benzo[b]thiophen-2-yl-2,4-dimethoxy-phenyl)-acryloyl]-phenylthio}-acetic acid]
223 to 225 °C			COc1cc(OC(C)(C)C(=O)O)c(/C=C/C(=O)c2ccc(C(=O)O)cc2)cc1-c1cccs1 [Example 59, 4-{3E-[2-(1-Carboxy-1-methyl-ethoxy)-4-methoxy-5-thiophen-2-yl-phenyl]-acryloyl}-benzoic acid]

Compound	melting point	pIC50 (VCAM-1; Homo sapiens, 16 h)	pIC50 (VCAM-1; sodium salt)
O=C(O)c1ccc(/C=C/C(=O)c2ccc(-c3cccs3)cc2)cc1 [Example 18, 4-[3-{4-(thien-2-yl)-phenyl}-3-oxo-E-propenyl]-benzoic acid]	260 to 265 °C	> 5.30	
